# Reference: US12616203B2, “Use of 3-isoxazolidinones compounds as selective herbicides” (FMC Corporation, priority 2014, dated 2026)
# Tests used:
# Italian ryegrass = assay: Ex36 POST 2,4-DC + metsulfuron-methyl, % control 28 DAT, Colby; assay type: in vivo, Lolium perenne L. ssp. multiflorum
# Excerpt: Crops screened were wheat and barley.
# weeds [1] = assay: Ex22 PRE greenhouse; assay type: in vivo; details: 28 DAT, weed and rate in the words
# Excerpt: 2,4 DC (36.7% CS) was applied PRE at 0, 125, 170, 210, or 250 g ai/ha alone or as a tank-mix with S-metolachlor (Dual II Magnum®, 82.4%) at 0, 267, 534, 801, or 1070 g ai/ha. Pyroxasulfone plus fluthiacet-methyl (Anthem™, 23.3%) applied at 169.9 g ai/ha, and the tank-mix of mesotrione (Callisto®, 40%) at 123 g plus S-metolachlor (Dual II Magnum®, 82.4%) at 1252 g were included as a standards for comparison.
# Thereafter flats were watered and fertilized routinely. Each treatment was replicated three times.
# jimsonweed = assay: Ex15 PRE 2,4-DC + S-metolachlor, % control 28 DAT, Colby; assay type: in vivo, Datura stramonium
# Excerpt: The weeds tested in this study were redroot pigweed (Amaranthus retroflexus, AMARE), Jimsonweed (Datura stramonium, DATST), black nightshade (Solanum nigrum, SOLNI), large crabgrass (Digitaria sanguinalis, DIGSA), Pennsylvania smartweed (Polygonum pensylvanicum, POLPY), horseweed (Conyza canadensis, ERICA), wild buckwheat (Polygonum convolvulus, POLCO). The crop tested was Corn (var. Viking).
# To determine PRE efficacy and corn injury, five rates of each 2,4 DC (36.7% CS) and S-metolachlor (Dual II Magnum®, 82.4%) were applied either alone or as tank-mix. 2,4 DC was applied at 0, 125, 170, 210, or 250 g ai/ha and S-metolachlor was applied at 0, 267, 534, 801, or 1070 g ai/ha. Additional treatments included application of premix of pyroxasulfone plus fluthiacet-methyl (Anthem™ 23.3%) at 169.9 g ai/ha and tank-mix of mesotrione (Callisto®, 40%) at 123 g plus S-metolachlor at 1252 g. Treatments were applied just after the planting of large crabgrass, Jimsonweed, black nightshade, redroot pigweed, Pennsylvania smartweed, horseweed, wild buckwheat, and corn.
# Flats were watered and fertilized routinely after treatment application. Each treatment was replicated three times. […] Corn injury was rated for bleaching and stunting.
# Yellow nutsedge = assay: Ex39 PRE 2,4-DC + pyroxasulfone + carfentrazone, % control 28 DAT, Colby
# weeds [2] = assay: Ex24 PRE greenhouse; assay type: in vivo; details: weed and rate in the words
# Excerpt: The tested weeds include Giant foxtail (Setaria faberi, SETFA), green foxtail (Setaria virdis, SETVI), yellow foxtail (Setaria pumila, SETLU), black nightshade (Solanum nigrum, SOLNI), kochia (Kochia scoparia, KCHSC), redroot pigweed (Amaranthus retroflexus, AMARE), common ragweed (Ambrosia artemisiifolia, AMBEL), barnyardgrass (Echinochloa crus-galli, ECHCG), large crabgrass (Digitaria sanguinalis, DIGSA).
# To determine PRE efficacy, five levels of 2,4 DC-21 (36.7% CS) 0, 125, 170, 210, or 250 g ai/ha and five levels of pyroxasulfone (KIH485-85WG) 0, 50, 65, 80, or 95 g ai/ha were applied either alone or as tank-mix. Additional treatments consisted of premix of pyroxasulfone plus fluthiacet-methyl (Anthem™ 23.3%) at 169.9 g ai/ha, S-metolachlor (Dual II Magnum®, 82.4%) at 1388 g, and tank-mix of mesotrione (Callisto®, 40%) at 123 g plus S-metolachlor at 1252 g. […] Treatments were applied before the emergence of black nightshade, giant foxtail, green foxtail, yellow foxtail, large crabgrass, kochia, redroot pigweed, common ragweed, and bamyardgrass. […] Flats were watered and fertilized routinely after treatment application. Each treatment was replicated three times.
# Wild mustard [3] = assay: Ex35 PRE 2,4-DC + dimethachlor + napropamide, % control 28 DAT, Colby; assay type: in vivo, Sinapis arvensis
# Excerpt: Crops screened were wheat and canola.
# Littleseed canarygrass = assay: Ex34 PRE 2,4-DC + napropamide, % control, Colby; assay type: in vivo, Phalaris minor; details: 28 DAT
# Excerpt: (§1) Thereafter flats were watered and fertilized routinely.
# Sorghum = assay: Ex46 PRE sorghum injury 7, 14, 21, 28 DAT; details: rate in the words
# Method: Treatments were applied to sorghum at the time of planting using Pennington soil. Each treatment was replicated four times. Soil was watered before and after application for herbicide activation. Plants were watered and fertilized routinely. […] Visual percent crop injury was recorded at 7, 14, 21, and 28 days after treatment using a scale of 0 (no injury) to 100 (complete plant death).
# Blackgrass = assay: Ex34 PRE 2,4-DC + napropamide, % control, Colby; assay type: in vivo, Alopecurus myosuroides; details: 28 DAT
# Excerpt: as §1
# Wild mustard [4] = assay: Ex13 PRE 2,4-DC + diflufenican, % control 28 DAT, Colby; assay type: in vivo, Sinapis arvensis
# Excerpt: Pyroxasulfone (KIH-485, 85%) at 74.3 g ai/ha, pendimethalin (Prowl 3.3EC, 37.4%) at 1200 g ai/ha, or a premix of chlorsulfuron plus metsulfuron-methyl (Report Extra, 75%) at 15.8 g ai/ha were applied as commercial standards. […] Treatments were replicated 3 times and flats were watered after planting before the treatment and lightly watered after treatment application. Thereafter flats were watered and fertilized routinely.
compound,measurement,setting,value
"CC1(C)CON(Cc2ccc(Cl)cc2Cl)C1=O [2,4-DC, 2-(2,4-dichlorophenyl)methyl-4,4-dimethyl-3-isoxazolidinone]",X,"Italian ryegrass; 2,4-DC alone 50 g ai/ha",22%
same,X,"Italian ryegrass; 2,4-DC alone 100 g ai/ha",18%
same,X,"Italian ryegrass; 2,4-DC alone 200 g ai/ha",29%
same,weed control in words,weeds [1],"applied alone controlled (≥85% injury) Johnsongrass at 210 g ai/ha, common lambsquarters at 250 g and goosegrass at all rates"
same,X,"jimsonweed; 2,4-DC alone 125 g ai/ha",37%
same,X,"jimsonweed; 2,4-DC alone 170 g ai/ha",40%
same,X,"jimsonweed; 2,4-DC alone 210 g ai/ha",48%
same,X,"jimsonweed; 2,4-DC alone 250 g ai/ha",53%
same,"X (% control, 2,4-DC alone)","Yellow nutsedge; PRE, 2,4-DC 50 g ai/ha",1%
same,"X (% control, 2,4-DC alone)","Yellow nutsedge; PRE, 2,4-DC 100 g ai/ha",3%
same,"X (% control, 2,4-DC alone)","Yellow nutsedge; PRE, 2,4-DC 200 g ai/ha",3%
same,weed control in words,weeds [2],"alone controlled kochia at 210 g ai/ha, barnyardgrass and large crabgrass at 125 g, giant foxtail and green foxtail at 170 g"
same,X,"Wild mustard [3]; 2,4-DC alone 50 g ai/ha",12%
same,X,"Wild mustard [3]; 2,4-DC alone 100 g ai/ha",37%
same,X,"Wild mustard [3]; 2,4-DC alone 200 g ai/ha",47%
same,X,"Littleseed canarygrass; 2,4-DC alone 31 g ai/ha",8%
same,X,"Littleseed canarygrass; 2,4-DC alone 63 g ai/ha",12%
same,X,"Littleseed canarygrass; 2,4-DC alone 125 g ai/ha",18%
same,X,"Littleseed canarygrass; 2,4-DC alone 250 g ai/ha",27%
same,X,"Littleseed canarygrass; 2,4-DC alone 375 g ai/ha",53%
same,sorghum safety in words,Sorghum,safe on sorghum at rates ranging from 31 to 125 g ai/ha irrespective of rating timings
same,X,"Blackgrass; 2,4-DC alone 31 g ai/ha",10%
same,X,"Blackgrass; 2,4-DC alone 63 g ai/ha",18%
same,X,"Blackgrass; 2,4-DC alone 125 g ai/ha",84%
same,X,"Blackgrass; 2,4-DC alone 250 g ai/ha",93%
same,X,"Blackgrass; 2,4-DC alone 375 g ai/ha",97%
same,X,"Wild mustard [4]; 2,4-DC alone 125 g ai/ha",10%
same,X,"Wild mustard [4]; 2,4-DC alone 170 g ai/ha",15%
same,X,"Wild mustard [4]; 2,4-DC alone 210 g ai/ha",26%
same,X,"Wild mustard [4]; 2,4-DC alone 250 g ai/ha",23%
